Data from patent publication US20230348418A1, “ISOINDOLINONE COMPOUNDS” (Monte Rosa Therapeutics, Inc., priority 2021, published 2023).

Tests used:
NCI-H1155 = test: N-Myc-driven mouse xenograft model, human cell line NCI-H1155 (FIG. 3A); format: in vivo
[1] = tested on: NCI-H1155 cells (human non small cell lung cancer); test: NCI-H1155 xenograft study; format: in vivo, BALB/c nude mice
Procedure: For the NCI-H1155 xenograft study, cells (human non small cell lung cancer, ATCC CRL-5818) were maintained in vitro as suspension culture in ATCC-formulated DMEM:F12 Medium supplemented as recommended by the provider and kept at 37° C. in an atmosphere of 5% CO2 in air. Cells (0.5 millions) were resuspended in 0.2 mL of PBS with Matrigel (50:50) and inoculated into female BALB/c nude mice, 6-8 weeks old, and allowed to grow to 150 mm^3 in size. Mice were dosed orally with either vehicle or compound 10 at 1 or 3 mg per kilogram daily (filled squares and filled triangles, respectively) or 6 mg per kilogram for 5 continuous days followed by 9 days treatment holidays (5 On-9 off) (filled inverted triangles). Compound formulations were prepared fresh daily in 5% vDMSO/95%(30% w/v HP-β-CD in water). Gemcitabine dosed at 40 mg per kilogram, IP, Q4Dx5 was used as a positive control (filled rhombi). For this study, mice were dosed for 21 days with tumor volumes measured every 3 days.

NCI-H1770 = test: N-Myc-driven mouse xenograft model, human cell line NCI-H1770 (FIG. 3C); format: in vivo
SALL4 = biological target: T1, SALL4 (Homo sapiens, UniProt Q9UJQ4); test: SALL4 degradation in treated cells (FIG. 1A); format: cell-based; details: concentrations up to 30 µM
T1 construct: endogenous in cells

[2] = tested on: NCI-H1155, ABC-1 and EBC-1, NCI-H2023 cell lines; test: Viability assay (CellTiter-Glo) in N-Myc high and N-Myc low NSCLC cell lines; format: cell-based; details: 72 hours
Procedure: The anti-proliferative activity of compound 10 was tested on representative N-Myc high and N-Myc low cell lines (NCI-H1155, ABC-1 and EBC-1, NCI-H2023, respectively) following treatment with compound for 72 hours. Cells were sub-cultures as recommended by the providers (ATCC, DSMZ) and incubated at 37° C., 5% CO2. All cells were authenticated and confirmed by Short Tandem Repeat (STR) profiling. Briefly, cells were seeded to the appropriate density to allow logarithmic growth over the assay period in 96-well opaque-walled clear bottom plates (from Corning, Cat. No. 3903, Lot. No. 16419061; 100 μL total volume) and incubated overnight. […] Cell viability was assessed using the CellTiter-Glo assay kit as recommended by the Manufacturer (Promega, Cat. No. G7558, Lot. No. 0000385738) and measurements performed on the EnSpire multimode plate reader (Perkin Elmer). EC50 values were determined using Prism8 (GraphPad) and the asymmetric (five-parameter) equation and least squares fit. GSPT1 levels were assessed in the NCI-H1155 and ABC-1 cell lines by densitometry analysis following treatment with compound 10 for 6 hours and western blotting analysis. […] For chemiluminescence and colorimetric signals “optimal automatic exposure” settings (3×3 binning) were employed while fluorescence was detected using 1-4 seconds exposure time to achieve best GAPDH signals and avoid overexposure. […]

GSPT1 = GSPT1 (Homo sapiens, UniProt P15170+Q96SW2); test: GSPT1 degradation in NCI-H1155 cells; format: cell-based
Procedure: GSPT1 was degraded by compound 10 after six hours of treatment in high N-Myc NCI-H1155 and ABC-1 cells with a DC50 of 3 nM and 22 nM, respectively (x-axys represents […]M concentration of compound 10; y-axis represents the viability in %).

[3] = 6 mg/kg PO, five days on and nine days off

T1 sequence (Q96SW2 whole entry partner): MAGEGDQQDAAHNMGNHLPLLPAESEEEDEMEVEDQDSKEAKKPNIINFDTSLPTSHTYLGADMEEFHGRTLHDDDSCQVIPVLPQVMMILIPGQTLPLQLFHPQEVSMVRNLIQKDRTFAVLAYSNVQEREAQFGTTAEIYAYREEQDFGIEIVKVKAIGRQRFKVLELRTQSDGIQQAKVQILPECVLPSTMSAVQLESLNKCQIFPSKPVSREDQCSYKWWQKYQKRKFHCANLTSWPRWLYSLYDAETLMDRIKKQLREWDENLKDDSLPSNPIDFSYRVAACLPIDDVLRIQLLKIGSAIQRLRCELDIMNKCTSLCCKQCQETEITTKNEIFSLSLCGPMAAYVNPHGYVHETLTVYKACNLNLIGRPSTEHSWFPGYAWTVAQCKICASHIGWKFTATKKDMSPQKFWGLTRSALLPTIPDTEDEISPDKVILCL
T1 sequence (Q16531 2-1140 partner limits assumed): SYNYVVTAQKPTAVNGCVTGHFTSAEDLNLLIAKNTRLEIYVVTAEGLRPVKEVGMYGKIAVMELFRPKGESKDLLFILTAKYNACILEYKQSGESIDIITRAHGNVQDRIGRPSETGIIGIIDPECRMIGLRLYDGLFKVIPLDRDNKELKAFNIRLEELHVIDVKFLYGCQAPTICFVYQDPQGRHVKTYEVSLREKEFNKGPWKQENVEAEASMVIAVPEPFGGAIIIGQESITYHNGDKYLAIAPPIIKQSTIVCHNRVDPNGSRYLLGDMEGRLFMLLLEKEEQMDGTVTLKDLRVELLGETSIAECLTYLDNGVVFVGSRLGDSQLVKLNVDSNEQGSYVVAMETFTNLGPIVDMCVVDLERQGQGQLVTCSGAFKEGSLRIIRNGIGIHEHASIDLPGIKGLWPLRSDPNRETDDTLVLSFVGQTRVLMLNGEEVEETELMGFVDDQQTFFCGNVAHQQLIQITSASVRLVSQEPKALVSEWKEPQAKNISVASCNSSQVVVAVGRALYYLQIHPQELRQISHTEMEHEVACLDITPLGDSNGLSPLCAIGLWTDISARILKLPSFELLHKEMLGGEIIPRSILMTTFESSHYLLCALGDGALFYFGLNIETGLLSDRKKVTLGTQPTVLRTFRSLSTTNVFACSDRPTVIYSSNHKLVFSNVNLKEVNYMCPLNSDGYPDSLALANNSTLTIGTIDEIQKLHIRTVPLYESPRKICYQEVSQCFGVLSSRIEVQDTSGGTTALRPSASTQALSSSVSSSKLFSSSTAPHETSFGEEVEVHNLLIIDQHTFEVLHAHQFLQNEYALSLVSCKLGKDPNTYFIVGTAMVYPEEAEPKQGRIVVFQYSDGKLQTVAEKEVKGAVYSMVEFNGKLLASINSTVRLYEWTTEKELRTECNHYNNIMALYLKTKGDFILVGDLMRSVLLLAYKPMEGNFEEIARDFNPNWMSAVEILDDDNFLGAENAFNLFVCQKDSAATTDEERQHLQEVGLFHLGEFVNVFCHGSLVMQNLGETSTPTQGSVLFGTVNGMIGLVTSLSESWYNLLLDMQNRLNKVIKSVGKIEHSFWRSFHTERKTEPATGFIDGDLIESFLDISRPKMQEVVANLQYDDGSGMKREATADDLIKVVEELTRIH
T1 sequence (Q9UJQ4 whole entry): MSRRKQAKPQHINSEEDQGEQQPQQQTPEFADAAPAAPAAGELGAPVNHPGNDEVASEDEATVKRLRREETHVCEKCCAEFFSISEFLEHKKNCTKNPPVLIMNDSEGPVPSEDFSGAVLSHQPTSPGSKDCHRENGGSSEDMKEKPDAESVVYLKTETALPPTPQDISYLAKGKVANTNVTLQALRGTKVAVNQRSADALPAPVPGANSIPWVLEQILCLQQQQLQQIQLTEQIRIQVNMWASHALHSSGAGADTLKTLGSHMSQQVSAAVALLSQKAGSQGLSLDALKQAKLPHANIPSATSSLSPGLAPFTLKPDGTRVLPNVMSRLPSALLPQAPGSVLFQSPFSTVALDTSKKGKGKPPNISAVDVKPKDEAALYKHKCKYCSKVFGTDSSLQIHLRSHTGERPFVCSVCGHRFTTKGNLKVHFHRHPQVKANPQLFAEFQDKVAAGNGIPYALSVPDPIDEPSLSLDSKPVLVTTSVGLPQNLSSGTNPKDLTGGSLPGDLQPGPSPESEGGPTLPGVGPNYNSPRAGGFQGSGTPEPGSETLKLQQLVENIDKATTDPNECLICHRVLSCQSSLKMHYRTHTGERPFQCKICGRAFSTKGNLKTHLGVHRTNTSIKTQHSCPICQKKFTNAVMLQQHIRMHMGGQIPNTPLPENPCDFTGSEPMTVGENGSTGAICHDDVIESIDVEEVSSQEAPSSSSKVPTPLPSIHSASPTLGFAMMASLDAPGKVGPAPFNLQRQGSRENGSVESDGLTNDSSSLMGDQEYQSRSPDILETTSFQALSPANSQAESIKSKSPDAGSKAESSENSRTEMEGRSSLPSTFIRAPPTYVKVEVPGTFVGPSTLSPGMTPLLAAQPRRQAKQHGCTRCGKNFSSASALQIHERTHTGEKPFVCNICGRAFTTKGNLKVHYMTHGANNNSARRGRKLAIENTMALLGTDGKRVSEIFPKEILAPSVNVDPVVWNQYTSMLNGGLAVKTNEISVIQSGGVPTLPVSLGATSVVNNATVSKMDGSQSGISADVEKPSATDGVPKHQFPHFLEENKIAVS
GSPT1, sequence (P15170 whole entry): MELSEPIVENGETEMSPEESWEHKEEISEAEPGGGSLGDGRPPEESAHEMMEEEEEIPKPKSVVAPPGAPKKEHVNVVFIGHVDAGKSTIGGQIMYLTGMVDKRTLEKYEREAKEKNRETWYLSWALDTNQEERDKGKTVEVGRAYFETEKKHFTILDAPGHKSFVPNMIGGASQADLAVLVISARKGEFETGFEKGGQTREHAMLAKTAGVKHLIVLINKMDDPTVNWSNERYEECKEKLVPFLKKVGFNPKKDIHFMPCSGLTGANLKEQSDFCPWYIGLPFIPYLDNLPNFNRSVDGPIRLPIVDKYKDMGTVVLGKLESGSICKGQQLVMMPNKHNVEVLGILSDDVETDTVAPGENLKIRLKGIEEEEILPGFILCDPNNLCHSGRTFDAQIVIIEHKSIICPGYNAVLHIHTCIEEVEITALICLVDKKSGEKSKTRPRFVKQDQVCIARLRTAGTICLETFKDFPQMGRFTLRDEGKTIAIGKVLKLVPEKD
GSPT1, sequence (Q96SW2 whole entry): as the sequence (Q96SW2 whole entry partner) above
GSPT1, sequence (Q16531 2-1140 partner limits assumed): as the sequence (Q16531 2-1140 partner limits assumed) above

With Cc1ccc(NC(=O)OCc2ccc3c(c2)C(=O)N(C2CCC(=O)NC2=O)C3)cc1Cl (centres unmarked) [Compound 10] the “tumor growth (tumor volume)” value (NCI-H1155; 1 mg/kg once daily, PO) was “tumor growth was suppressed for two weeks”, the “tumor size (tumor volume)” value (NCI-H1155; 3 mg/kg once daily, PO) was “tumor size decreased, became undetectable by day eight and remained so until the end of the study at day 21” and the “tumor size (tumor volume)” value (NCI-H1155; [3]) was “tumor size decreased, became undetectable by day eight and remained so until the end of the study at day 21”. The body weight (NCI-H1155; oral administration, NCI-H1155 xenograft) was “no body weight loss observed”, the “tumor growth (tumor volume)” value (NCI-H1155; oral administration, NCI-H1155 xenograft, overall) was “tumor growth inhibition” and the “Tumor growth (FIG. 3A)” value ([1]; 1 mg/kg once daily, oral) was “tumor growth was suppressed for two weeks”. For the same compound, the “Tumor size (FIG. 3A)” value ([1]; 3 mg/kg once daily, oral) was “tumor size decreased, became undetectable by day eight and remained so until the end of the study at day 21”, the “Tumor size (FIG. 3A)” value ([1]; 6 mg/kg dosed for five days on and nine days off, oral) was “tumor size decreased, became undetectable by day eight and remained so until the end of the study at day 21” and the body weight ([1]; oral administration, NCI-H1155 xenograft mice) was “no body weight loss observed”. The “Tumor growth (FIG. 3A)” value ([1]; oral administration, all dose groups) was “tumor growth inhibition”, the “tumor size (tumor volume)” value (NCI-H1770; 3 mg/kg once daily, PO) was “tumor size decreased and remained so until the end of the study” and the “tumor size (tumor volume)” value (NCI-H1770; [3]) was “tumor size decreased and remained so until the end of the study”. The body weight (NCI-H1770; oral administration, NCI-H1770 xenograft) was “no body weight loss observed”, the “tumor growth (tumor volume)” value (NCI-H1770; oral administration, NCI-H1770 xenograft, overall) was “tumor growth inhibition” and the “degradation of SALL4” value (SALL4) was “no induction of degradation”. For the same compound, the “Sensitivity (anti-proliferative activity) versus N-Myc expression (FIG. 2A)” value [2] was “sensitivity correlated with the expression of N-Myc” and the “extent of GSPT1 degradation” value (GSPT1) was “complete degradation”.
